The NIST ThermoML archive (doi:10.1016/j.jct.2006.03.018)
Numbers after ± are expanded uncertainties.

What was measured:
[1] = 101 kPa, Liquid
[2] = refractive index (Na D-line) (dimensionless); settings: 101.33 kPa, Liquid
[3] = xn = mol fraction of the nth substance listed; settings: 101 kPa, Liquid
[4] = refractive index (Na D-line) (dimensionless); xn = mol fraction of the nth substance listed; settings: 101 kPa, Liquid

## CC(C)CCO [3-methylbutan-1-ol]
[1]; 298.15 K
  mass density: 807.2 ± 6.9 kg/m3
  speed of sound: 1241 ± 43 m/s
  viscosity: 3.835 ± 0.44 mPa·s
[1]; 303.15 K
  mass density: 803.45 ± 7 kg/m3
  viscosity: 3.261 ± 0.38 mPa·s
[1]; 308.15 K
  mass density: 791.86 ± 7.3 kg/m3
[2]; 298.15 K
  refractive index: 1.405 ± 0.0025
[2]; 303.15 K
  refractive index: 1.403 ± 0.0025

## CCO [ethanol]
[1]; 298.15 K
  mass density: 785.91 ± 3.7 kg/m3
  speed of sound: 1161 ± 82 m/s
  viscosity: 1.073 ± 0.14 mPa·s
[1]; 303.15 K
  mass density: 781.6 ± 3.7 kg/m3
  viscosity: 0.971 ± 0.12 mPa·s
[1]; 308.15 K
  mass density: 777.26 ± 3.8 kg/m3
  viscosity: 0.889 ± 0.12 mPa·s
[2]; 298.15 K
  refractive index: 1.3591 ± 0.005
[2]; 303.15 K
  refractive index: 1.3572 ± 0.005
[2]; 308.15 K
  refractive index: 1.355 ± 0.005

## CCCCCO [pentan-1-ol]
[1]; 298.15 K
  mass density: 810.92 ± 3.5 kg/m3
  speed of sound: 1286 ± 44 m/s
  viscosity: 3.403 ± 0.39 mPa·s
[1]; 303.15 K
  mass density: 807.23 ± 3.5 kg/m3
  viscosity: 2.959 ± 0.34 mPa·s
[1]; 308.15 K
  mass density: 803.52 ± 3.6 kg/m3
  viscosity: 2.581 ± 0.3 mPa·s
[2]; 298.15 K
  refractive index: 1.4073 ± 0.005
[2]; 303.15 K
  refractive index: 1.405 ± 0.005
[2]; 308.15 K
  refractive index: 1.4032 ± 0.005

## CC(C)O [propan-2-ol]
[1]; 298.15 K
  mass density: 781.36 ± 3.8 kg/m3
  speed of sound: 1141 ± 41 m/s
  viscosity: 2.042 ± 0.24 mPa·s
[1]; 303.15 K
  mass density: 777.09 ± 3.8 kg/m3
  viscosity: 1.755 ± 0.21 mPa·s
[1]; 308.15 K
  mass density: 772.75 ± 3.9 kg/m3
  viscosity: 1.521 ± 0.18 mPa·s
[2]; 298.15 K
  refractive index: 1.3745 ± 0.005
[2]; 303.15 K
  refractive index: 1.3721 ± 0.005
[2]; 308.15 K
  refractive index: 1.3702 ± 0.005

## CCCCO [butan-1-ol]
[1]; 298.15 K
  mass density: 806.12 ± 14 kg/m3
  speed of sound: 1246 ± 43 m/s
  viscosity: 2.585 ± 0.3 mPa·s
[1]; 303.15 K
  mass density: 802.28 ± 14 kg/m3
  viscosity: 2.284 ± 0.27 mPa·s
[1]; 308.15 K
  mass density: 798.41 ± 14 kg/m3
  viscosity: 1.981 ± 0.24 mPa·s
[2]; 298.15 K
  refractive index: 1.3968 ± 0.005
[2]; 303.15 K
  refractive index: 1.3944 ± 0.005
[2]; 308.15 K
  refractive index: 1.3923 ± 0.005

## CCCO [propan-1-ol]
[1]; 298.15 K
  mass density: 799.96 ± 3.5 kg/m3
  speed of sound: 1206 ± 42 m/s
  viscosity: 1.792 ± 0.21 mPa·s
[1]; 303.15 K
  mass density: 795.93 ± 3.6 kg/m3
  viscosity: 1.706 ± 0.2 mPa·s
[1]; 308.15 K
  mass density: 791.86 ± 3.6 kg/m3
  viscosity: 1.518 ± 0.18 mPa·s
[2]; 298.15 K
  refractive index: 1.3826 ± 0.005
[2]; 303.15 K
  refractive index: 1.3808 ± 0.005
[2]; 308.15 K
  refractive index: 1.3782 ± 0.005

## COc1ccccc1 [anisole] + CCO
[3]; 298.15 K, x1 = 0.0998
  mass density: 822.6 ± 3.2 kg/m3
  speed of sound: 1178 ± 83 m/s
  viscosity: 0.995 ± 0.13 mPa·s
[3]; 298.15 K, x1 = 0.1985
  mass density: 852.71 ± 2.9 kg/m3
  speed of sound: 1226 ± 86 m/s
  viscosity: 0.934 ± 0.12 mPa·s
[3]; 298.15 K, x1 = 0.2976
  mass density: 878.53 ± 2.5 kg/m3
  speed of sound: 1277 ± 88 m/s
  viscosity: 0.91 ± 0.12 mPa·s
[3]; 298.15 K, x1 = 0.3973
  mass density: 900.47 ± 2.3 kg/m3
  speed of sound: 1290 ± 89 m/s
  viscosity: 0.881 ± 0.11 mPa·s
[3]; 298.15 K, x1 = 0.5008
  mass density: 920.46 ± 2.1 kg/m3
  speed of sound: 1301 ± 89 m/s
  viscosity: 0.882 ± 0.11 mPa·s
[3]; 298.15 K, x1 = 0.5968
  mass density: 936.53 ± 1.9 kg/m3
  speed of sound: 1314 ± 90 m/s
  viscosity: 0.849 ± 0.11 mPa·s
[3]; 298.15 K, x1 = 0.7015
  mass density: 952.42 ± 1.8 kg/m3
  speed of sound: 1326 ± 91 m/s
  viscosity: 0.894 ± 0.12 mPa·s
[3]; 298.15 K, x1 = 0.7935
  mass density: 964.6 ± 1.7 kg/m3
  speed of sound: 1340 ± 91 m/s
  viscosity: 0.897 ± 0.12 mPa·s
[3]; 298.15 K, x1 = 0.9014
  mass density: 977.99 ± 1.6 kg/m3
  speed of sound: 1355 ± 92 m/s
  viscosity: 0.923 ± 0.12 mPa·s
[3]; 298.15 K, x1 = 1
  mass density: 989.15 ± 1.6 kg/m3
  speed of sound: 1412 ± 95 m/s
  viscosity: 0.988 ± 0.13 mPa·s
[3]; 303.15 K, x1 = 0.0998
  mass density: 818.11 ± 3.3 kg/m3
  viscosity: 0.908 ± 0.12 mPa·s
[3]; 303.15 K, x1 = 0.1985
  mass density: 848.12 ± 2.9 kg/m3
  viscosity: 0.851 ± 0.11 mPa·s
[3]; 303.15 K, x1 = 0.2976
  mass density: 873.84 ± 2.6 kg/m3
  viscosity: 0.829 ± 0.11 mPa·s
[3]; 303.15 K, x1 = 0.3973
  mass density: 895.73 ± 2.4 kg/m3
  viscosity: 0.813 ± 0.11 mPa·s
[3]; 303.15 K, x1 = 0.5008
  mass density: 915.68 ± 2.1 kg/m3
  viscosity: 0.807 ± 0.11 mPa·s
[3]; 303.15 K, x1 = 0.5968
  mass density: 931.73 ± 2 kg/m3
  viscosity: 0.784 ± 0.1 mPa·s
[3]; 303.15 K, x1 = 0.7015
  mass density: 947.62 ± 1.9 kg/m3
  viscosity: 0.832 ± 0.11 mPa·s
[3]; 303.15 K, x1 = 0.7935
  mass density: 960.01 ± 1.8 kg/m3
  viscosity: 0.83 ± 0.11 mPa·s
[3]; 303.15 K, x1 = 0.9014
  mass density: 973.42 ± 1.7 kg/m3
  viscosity: 0.858 ± 0.11 mPa·s
[3]; 303.15 K, x1 = 1
  mass density: 984.45 ± 1.6 kg/m3
  viscosity: 0.913 ± 0.12 mPa·s
[3]; 308.15 K, x1 = 0.0998
  mass density: 813.62 ± 3.3 kg/m3
  viscosity: 0.831 ± 0.11 mPa·s
[3]; 308.15 K, x1 = 0.1985
  mass density: 843.52 ± 3 kg/m3
  viscosity: 0.777 ± 0.1 mPa·s
[3]; 308.15 K, x1 = 0.2976
  mass density: 869.14 ± 2.7 kg/m3
  viscosity: 0.768 ± 0.1 mPa·s
[3]; 308.15 K, x1 = 0.3973
  mass density: 890.99 ± 2.4 kg/m3
  viscosity: 0.747 ± 0.099 mPa·s
[3]; 308.15 K, x1 = 0.5008
  mass density: 910.89 ± 2.2 kg/m3
  viscosity: 0.749 ± 0.1 mPa·s
[3]; 308.15 K, x1 = 0.5968
  mass density: 926.92 ± 2.1 kg/m3
  viscosity: 0.727 ± 0.097 mPa·s
[3]; 308.15 K, x1 = 0.7015
  mass density: 942.81 ± 1.9 kg/m3
  viscosity: 0.774 ± 0.1 mPa·s
[3]; 308.15 K, x1 = 0.7935
  mass density: 955.42 ± 1.8 kg/m3
  viscosity: 0.772 ± 0.1 mPa·s
[3]; 308.15 K, x1 = 0.9014
  mass density: 968.84 ± 1.7 kg/m3
  viscosity: 0.792 ± 0.1 mPa·s
[3]; 308.15 K, x1 = 1
  mass density: 979.73 ± 1.7 kg/m3
  viscosity: 0.854 ± 0.11 mPa·s
[4]; 298.15 K, x1 = 0.0998
  refractive index: 1.3856 ± 0.005
[4]; 298.15 K, x1 = 0.1985
  refractive index: 1.4085 ± 0.005
[4]; 298.15 K, x1 = 0.2976
  refractive index: 1.4284 ± 0.005
[4]; 298.15 K, x1 = 0.3973
  refractive index: 1.4459 ± 0.005
[4]; 298.15 K, x1 = 0.5008
  refractive index: 1.461 ± 0.005
[4]; 298.15 K, x1 = 0.5968
  refractive index: 1.4737 ± 0.005
[4]; 298.15 K, x1 = 0.7015
  refractive index: 1.4864 ± 0.005
[4]; 298.15 K, x1 = 0.7935
  refractive index: 1.4955 ± 0.005
[4]; 298.15 K, x1 = 0.9014
  refractive index: 1.5046 ± 0.005
[4]; 298.15 K, x1 = 1
  refractive index: 1.5137 ± 0.005
[4]; 303.15 K, x1 = 0.0998
  refractive index: 1.3838 ± 0.005
[4]; 303.15 K, x1 = 0.1985
  refractive index: 1.4066 ± 0.005
[4]; 303.15 K, x1 = 0.2976
  refractive index: 1.4261 ± 0.005
[4]; 303.15 K, x1 = 0.3973
  refractive index: 1.4428 ± 0.005
[4]; 303.15 K, x1 = 0.5008
  refractive index: 1.4586 ± 0.005
[4]; 303.15 K, x1 = 0.5968
  refractive index: 1.4711 ± 0.005
[4]; 303.15 K, x1 = 0.7015
  refractive index: 1.4842 ± 0.005
[4]; 303.15 K, x1 = 0.7935
  refractive index: 1.4934 ± 0.005
[4]; 303.15 K, x1 = 0.9014
  refractive index: 1.5031 ± 0.005
[4]; 303.15 K, x1 = 1
  refractive index: 1.5113 ± 0.005
[4]; 308.15 K, x1 = 0.0998
  refractive index: 1.3814 ± 0.005
[4]; 308.15 K, x1 = 0.1985
  refractive index: 1.4039 ± 0.005
[4]; 308.15 K, x1 = 0.2976
  refractive index: 1.4241 ± 0.005
[4]; 308.15 K, x1 = 0.3973
  refractive index: 1.4402 ± 0.005
[4]; 308.15 K, x1 = 0.5008
  refractive index: 1.4567 ± 0.005
[4]; 308.15 K, x1 = 0.5968
  refractive index: 1.4695 ± 0.005
[4]; 308.15 K, x1 = 0.7015
  refractive index: 1.4816 ± 0.005
[4]; 308.15 K, x1 = 0.7935
  refractive index: 1.4907 ± 0.005
[4]; 308.15 K, x1 = 0.9014
  refractive index: 1.5008 ± 0.005
[4]; 308.15 K, x1 = 1
  refractive index: 1.5088 ± 0.005
